Format in all cases: cell-based
One assay deals with T1, CD74-ROS1 Ba/F3 (Homo sapiens, UniProt P08922).
T1 construct: fused on or other part: P04233 (HLA class II histocompatibility antigen gamma chain)
Put plainly: Cell proliferation assay, CD74-ROS1 Ba/F3 stable cell line (CellTiter-Glo). The settings on record: Ba/F3-CD74-ROS1 wild type cells, 72 hours compound incubation; read-out: Cell Proliferation IC50 CD74-ROS1 Ba/F3. The source says: Creation of CD74-ROS1 and EML4-ALK Ba/F3 Stable Cell Lines and Cell Proliferation Assays.
The CD74-ROS1 wild-type gene and EML4-ALK wild-type gene (variant 1) were synthesized at GenScript and cloned into pCDH-CMV-MCS-EF1-Puro plasmid (System Biosciences, Inc). Ba/F3-CD74-ROS1 and Ba/F3-EML4-ALK wild type cell lines were generated by infecting Ba/F3 cells with lentivirus containing CD74-ROS1 wide-type and EML4-ALK wild type. Stable cell lines were selected by puromycin treatment, followed by IL-3 withdrawal. 3000 cells were seeded in 384 well white plate overnight before compound treatment. Cell proliferation was measured using CellTiter-Glo luciferase-based ATP detection assay (Promega) following the manufactures's protocol after 72 hours of various concentration of compound incubation. IC50 determinations were performed using GraphPad Prism software (GraphPad, Inc., San Diego, Calif.).
On the technique in general: Cellular ATP, detected with luciferase, serves as a proxy for viable cell number.

Another assay addresses T2, EML4-ALK Ba/F3 (Homo sapiens, UniProt Q9UM73).
T2 construct: fused on or other part: Q9HC35 (Echinoderm microtubule-associated protein-like 4)
The experiment in a line: Cell proliferation assay, EML4-ALK Ba/F3 stable cell line (CellTiter-Glo). Conditions: Ba/F3-EML4-ALK wild type (variant 1) cells, 72 hours compound incubation; read-out: Cell Proliferation IC50 EML4-ALK Ba/F3. Summed up: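 Ba/F3 cells were lentivirally transduced with wild-type CD74-ROS1 or EML4-ALK (variant 1), selected with puromycin and made IL-3-independent. Cells (3000/well) were seeded overnight and then treated with the compounds at various concentrations for 72 h. Proliferation was read by CellTiter-Glo ATP luminescence, and IC50 values were fitted.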

The test system of assay [1] is T cell lymphoma Karpas-299 cell line (harboring endogenous NPM-ALK fusion gene). Put plainly: Cell proliferation assay, Karpas-299 cells (CellTiter-Glo). The settings on record: Homo sapiens, 72 hours incubation. The method, then: Cell Proliferation Assays.
Colorectal cell lines KM 12 (harboring endogenous TPM3-TRKA fusion gene) cells were cultured in DMEM medium, supplemented with 10% fetal bovine serum and 100 U/mL of penicillin/streptomycin. 5000 cells were seeded in 384 well white plate for 24 hours before compounds treatment. Cell proliferation was measured using CellTiter-Glo luciferase-based ATP detection assay (Promega) following the manufactures's protocol after 72 hours incubation. IC50 determinations were performed using GraphPad Prism software (GraphPad, Inc., San Diego, Calif.). Alternatively, essential thrombocythemia cell line SET-2 cells (harboring endogenous JAK2 […] point mutation) or T cell lymphoma Karpas-299 cell line (harboring endogenous NPM-ALK fusion gene) were cultured in RPMI medium, supplemented with 10% fetal bovine serum and 100 U/mL of penicillin/streptomycin. 5000 cells were seeded in 384 well white plate for 24 hours before compounds treatment. Cell proliferation was measured using CellTiter-Glo luciferase-based ATP detection assay (Promega) following the manufactures's protocol after 72 hours incubation. IC50 determinations were performed using GraphPad Prism software (GraphPad, Inc., San Diego, Calif.).

Assay [2] deals with Colorectal cell lines KM 12 (harboring endogenous TPM3-TRKA fusion gene). Put plainly: Cell proliferation assay, KM12 cells (CellTiter-Glo). The settings on record: Homo sapiens, 72 hours incubation.
The subject of assay [3] is essential thrombocythemia cell line SET-2 cells (harboring endogenous JAK2 point mutation). The experiment in a line: Cell proliferation assay, SET-2 cells (CellTiter-Glo). Conditions: Homo sapiens, 72 hours incubation, read-out: Cell Proliferation IC50 SET2. Summed up:
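Karpas-299 (NPM-ALK) or SET-2 (JAK2 […]) cells in RPMI with 10% FBS, seeded 24 h before compound addition. Viability read by CellTiter-Glo ATP luminescence after 72 h incubation; IC50 derived from dose–response curves.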

The values below come from US11008337B2, “Chiral diaryl macrocycles as modulators of protein kinases” (Turning Point Therapeutics, Inc., priority 2015, dated 2021).

T1 sequence (P08922 whole entry, change not shown, the tested form may be a part): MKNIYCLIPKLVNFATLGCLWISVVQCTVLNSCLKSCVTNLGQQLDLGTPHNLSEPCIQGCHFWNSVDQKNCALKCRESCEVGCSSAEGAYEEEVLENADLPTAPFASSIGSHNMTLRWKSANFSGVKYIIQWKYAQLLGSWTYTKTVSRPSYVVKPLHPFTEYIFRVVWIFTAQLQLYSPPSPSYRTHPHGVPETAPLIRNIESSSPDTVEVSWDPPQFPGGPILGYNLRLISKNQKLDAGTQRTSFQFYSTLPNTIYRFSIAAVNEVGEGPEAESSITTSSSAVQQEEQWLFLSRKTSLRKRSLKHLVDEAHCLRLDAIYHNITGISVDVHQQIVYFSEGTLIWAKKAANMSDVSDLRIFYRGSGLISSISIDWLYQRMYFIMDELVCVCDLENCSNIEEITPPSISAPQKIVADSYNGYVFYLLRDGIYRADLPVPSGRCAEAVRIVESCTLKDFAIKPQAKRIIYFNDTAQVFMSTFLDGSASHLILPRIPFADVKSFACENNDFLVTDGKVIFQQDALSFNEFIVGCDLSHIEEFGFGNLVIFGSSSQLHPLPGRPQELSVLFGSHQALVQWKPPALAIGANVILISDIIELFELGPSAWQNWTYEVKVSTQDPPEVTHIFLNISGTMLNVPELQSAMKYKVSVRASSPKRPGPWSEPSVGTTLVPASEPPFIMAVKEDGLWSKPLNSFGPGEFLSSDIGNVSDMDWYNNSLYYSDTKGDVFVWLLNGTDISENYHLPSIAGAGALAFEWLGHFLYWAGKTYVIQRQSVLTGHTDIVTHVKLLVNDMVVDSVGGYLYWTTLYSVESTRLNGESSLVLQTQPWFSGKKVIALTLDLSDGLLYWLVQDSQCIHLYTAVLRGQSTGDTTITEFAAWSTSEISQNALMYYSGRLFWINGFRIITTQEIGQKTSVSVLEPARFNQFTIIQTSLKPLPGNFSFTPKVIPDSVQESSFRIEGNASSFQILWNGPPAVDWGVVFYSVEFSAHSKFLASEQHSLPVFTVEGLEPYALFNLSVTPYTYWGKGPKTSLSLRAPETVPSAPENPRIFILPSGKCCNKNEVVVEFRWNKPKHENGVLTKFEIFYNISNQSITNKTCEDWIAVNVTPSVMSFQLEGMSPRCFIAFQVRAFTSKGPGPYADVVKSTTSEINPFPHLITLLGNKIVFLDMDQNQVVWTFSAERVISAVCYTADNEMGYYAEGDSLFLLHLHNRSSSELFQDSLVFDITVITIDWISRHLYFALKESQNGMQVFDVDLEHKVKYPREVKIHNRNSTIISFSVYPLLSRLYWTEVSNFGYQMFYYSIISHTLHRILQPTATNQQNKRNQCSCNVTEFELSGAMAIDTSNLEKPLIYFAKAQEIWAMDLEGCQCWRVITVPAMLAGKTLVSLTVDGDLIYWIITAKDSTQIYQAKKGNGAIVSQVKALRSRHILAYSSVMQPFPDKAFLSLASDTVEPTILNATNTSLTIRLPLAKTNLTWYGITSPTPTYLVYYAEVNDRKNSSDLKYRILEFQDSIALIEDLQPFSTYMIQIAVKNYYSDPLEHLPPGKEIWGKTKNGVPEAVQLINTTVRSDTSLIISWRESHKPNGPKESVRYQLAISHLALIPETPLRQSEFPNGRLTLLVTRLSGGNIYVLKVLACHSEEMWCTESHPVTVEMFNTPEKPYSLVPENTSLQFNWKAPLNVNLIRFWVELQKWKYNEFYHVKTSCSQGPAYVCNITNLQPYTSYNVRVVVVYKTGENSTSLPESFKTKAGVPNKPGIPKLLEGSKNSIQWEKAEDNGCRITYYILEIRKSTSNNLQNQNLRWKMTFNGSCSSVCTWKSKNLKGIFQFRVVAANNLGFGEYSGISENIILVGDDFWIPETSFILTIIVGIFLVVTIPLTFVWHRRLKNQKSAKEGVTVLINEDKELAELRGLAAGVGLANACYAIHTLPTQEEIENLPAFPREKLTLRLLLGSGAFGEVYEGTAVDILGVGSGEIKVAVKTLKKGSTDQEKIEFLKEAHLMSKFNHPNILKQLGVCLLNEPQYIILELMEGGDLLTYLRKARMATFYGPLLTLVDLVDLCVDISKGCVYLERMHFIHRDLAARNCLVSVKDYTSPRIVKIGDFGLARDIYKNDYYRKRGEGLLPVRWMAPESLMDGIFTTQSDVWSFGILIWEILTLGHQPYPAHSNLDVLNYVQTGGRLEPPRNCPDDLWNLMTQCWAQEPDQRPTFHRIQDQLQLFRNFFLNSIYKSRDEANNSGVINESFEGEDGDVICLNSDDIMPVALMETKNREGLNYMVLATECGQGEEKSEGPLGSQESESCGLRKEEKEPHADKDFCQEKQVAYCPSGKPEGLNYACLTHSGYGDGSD
T2 sequence (Q9UM73 whole entry, change not shown, the tested form may be a part): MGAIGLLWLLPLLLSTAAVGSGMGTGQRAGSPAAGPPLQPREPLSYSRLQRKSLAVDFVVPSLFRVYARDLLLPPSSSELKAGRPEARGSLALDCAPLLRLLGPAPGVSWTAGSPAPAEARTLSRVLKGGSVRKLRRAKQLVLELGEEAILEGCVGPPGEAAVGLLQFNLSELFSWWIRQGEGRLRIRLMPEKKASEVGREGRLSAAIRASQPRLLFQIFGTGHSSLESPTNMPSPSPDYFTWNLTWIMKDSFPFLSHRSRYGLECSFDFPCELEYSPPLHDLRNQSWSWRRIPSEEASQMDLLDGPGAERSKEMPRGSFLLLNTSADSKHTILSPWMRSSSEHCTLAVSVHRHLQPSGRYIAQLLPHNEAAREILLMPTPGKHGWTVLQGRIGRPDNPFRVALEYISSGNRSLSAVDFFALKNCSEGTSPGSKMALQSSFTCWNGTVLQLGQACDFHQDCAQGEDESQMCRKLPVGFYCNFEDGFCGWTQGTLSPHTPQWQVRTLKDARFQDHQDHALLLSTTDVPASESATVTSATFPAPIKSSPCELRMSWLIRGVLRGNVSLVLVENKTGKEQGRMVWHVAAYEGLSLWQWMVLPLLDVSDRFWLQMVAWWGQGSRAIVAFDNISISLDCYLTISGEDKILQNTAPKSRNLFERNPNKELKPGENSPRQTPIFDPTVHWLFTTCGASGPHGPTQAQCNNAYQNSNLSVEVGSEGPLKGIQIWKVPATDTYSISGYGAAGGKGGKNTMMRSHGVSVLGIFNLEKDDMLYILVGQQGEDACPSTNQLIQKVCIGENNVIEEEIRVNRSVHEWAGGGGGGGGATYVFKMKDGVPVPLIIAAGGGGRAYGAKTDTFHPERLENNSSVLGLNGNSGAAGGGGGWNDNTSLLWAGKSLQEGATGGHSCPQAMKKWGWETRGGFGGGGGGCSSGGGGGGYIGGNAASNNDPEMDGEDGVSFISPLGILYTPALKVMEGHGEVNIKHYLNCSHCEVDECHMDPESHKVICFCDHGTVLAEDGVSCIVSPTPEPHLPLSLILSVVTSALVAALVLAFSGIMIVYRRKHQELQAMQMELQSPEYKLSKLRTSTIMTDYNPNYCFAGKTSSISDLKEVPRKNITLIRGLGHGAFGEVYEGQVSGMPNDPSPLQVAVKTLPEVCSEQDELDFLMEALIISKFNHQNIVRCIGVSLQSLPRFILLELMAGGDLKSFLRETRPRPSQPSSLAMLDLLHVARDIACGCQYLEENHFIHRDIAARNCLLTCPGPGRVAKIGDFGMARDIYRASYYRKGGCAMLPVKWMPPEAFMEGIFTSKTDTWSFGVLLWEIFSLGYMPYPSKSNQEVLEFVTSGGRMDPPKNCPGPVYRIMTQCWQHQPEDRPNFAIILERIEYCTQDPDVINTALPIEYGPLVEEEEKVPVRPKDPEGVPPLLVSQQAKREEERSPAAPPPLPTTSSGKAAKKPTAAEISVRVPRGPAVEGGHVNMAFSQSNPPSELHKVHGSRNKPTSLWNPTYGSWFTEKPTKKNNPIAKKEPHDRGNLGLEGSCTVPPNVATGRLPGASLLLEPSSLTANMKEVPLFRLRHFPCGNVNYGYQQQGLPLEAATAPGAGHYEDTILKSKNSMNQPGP

For the compound `CC(C)(O)[C@H]1Nc2ccn3ncc(c3n2)C(=O)NCCOc2ccc(F)cc21` [Compound 24, (13S)-11-fluoro-13-(2-hydroxypropan-2-yl)-6,7,13,14-tetrahydro-1,15-ethenopyrazolo[4,3-f][1,4,8,10]benzoxatriazacyclotridecin-4(5H)-one], the GI50 at CD74-ROS1 Ba/F3 was found to be 8 nM; on EML4-ALK Ba/F3 it was 475 nM. Further, the results for the IC50 in assay [1], in assay [2] and in assay [3] were 264 nM, 5 nM and 1320 nM, respectively.
